The text below walks through data of patent US7964539B2, “Well treatment” (Statoil ASA, priority 2004, dated 2011).

Each structure is given as a SMILES string. Values after ≈ are worked out from the molar mass of the structure shown. Where only a bound is given, the exact number is not on record here.

Series [1] can be described thus: Fish toxicity (LC50 fish). The note with it: in vivo. The source says: (§1) Organosilanes for use in the invention include, for example, organosilane hydrides, organosilane alkoxides and organosilane amines. Organosilane compounds have the advantage that they are typically oil-soluble and have the necessary reactivity with water. […] Organosilanes for use in the invention preferably have a biodegradability of at least 60%.

Another series deals with daphnia. Briefly: Daphnia toxicity (EC50 daphnia). Type of series: in vivo.
Text: as §1

A further series concerns algae. Briefly: Algae toxicity (IC50 algae). Format: cell-based.
Text: as §1

The nature of series [2]: Biodegradability, tested according to OECD 306.
Text: as §1

As for `CCO[Si](CCCN)(OCC)OCC` [DYNASYLAN AMEO, 3-amino-propyltriethoxysilane], in series [1], the LC50 – broadly, the concentration lethal to half of the exposed cells or organisms – came to 934 µg/mL (≈ 4220 µM). For the same compound, the EC50 (usually the concentration that produces a half-maximal response) in the series with daphnia turned out to be 331 µg/mL (≈ 1500 µM). In addition, in the series on algae, the IC50 (in general, the concentration that gives 50% inhibition) turned out to be 603 µg/mL (≈ 2720 µM). For the same compound, the biodegradability in series [2] is 67%.
Consider `CCO[Si](CCCNCCC[Si](OCC)(OCC)OCC)(OCC)OCC` [DYNASYLAN bis-AMEO, bis(triethoxysilylpropyl)amine], for which the LC50 in series [1] is above 200 µg/mL. In the series on daphnia, this compound came in with an EC50 above 200 µg/mL. Besides, the IC50 in the series with algae amounted to 125 µg/mL (≈ 294 µM). In series [2], this compound yielded a biodegradability of 64.5%.
